Where “and” joins values, the source holds several entries; their conditions need not be identical. Identical values can stand only once. Inconclusive results and toxic doses are left out.
Test system: L1210 leukemia ip in BDF1 mice, survival T/C
Assay: NCI In Vivo Anticancer Drug Screen. Data for tumor model L1210 Leukemia (intraperitoneal) in B6D2F1 (BDF1) mice
Conditions: endpoint: mean survival time, higher = longer survival
In short: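 Tumor was transplanted into mice, which were then dosed with test compound or vehicle alone. Survival was recorded for each group, and the treated figure was expressed relative to the control figure.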

[1] = dose: 100.0 mg/kg/injection, schedule: Q01DX001 (ip), vehicle: saline with Tween-80
[2] = dose: 100.0 mg/kg/injection, schedule: Q01DX009 (ip), vehicle: saline with Tween-80
[3] = dose: 200.0 mg/kg/injection, schedule: Q01DX009 (ip), vehicle: saline with Tween-80
[4] = dose: 400.0 mg/kg/injection, schedule: Q01DX001 (ip), vehicle: saline with Tween-80
[5] = dose: 400.0 mg/kg/injection, schedule: Q01DX009 (ip), vehicle: saline with Tween-80
[6] = dose: 6.25 mg/kg/injection, schedule: Q04DX003 (ip), vehicle: saline with Tween-80
[7] = dose: 12.5 mg/kg/injection, schedule: Q04DX003 (ip), vehicle: saline with Tween-80
[8] = dose: 25.0 mg/kg/injection, schedule: Q04DX003 (ip), vehicle: saline with Tween-80
[9] = dose: 100.0 mg/kg/injection, schedule: Q01DX009 (ip), vehicle: saline
[10] = dose: 100.0 mg/kg/injection, schedule: Q01DX001 (ip), vehicle: saline
[11] = dose: 200.0 mg/kg/injection, schedule: Q01DX001 (ip), vehicle: saline
[12] = dose: 400.0 mg/kg/injection, schedule: Q01DX001 (ip), vehicle: saline
[13] = dose: 100.0 mg/kg/injection, schedule: Q01DX001 (ip), vehicle: carboxymethylcellulose (CMC)
[14] = dose: 200.0 mg/kg/injection, schedule: Q01DX001 (ip), vehicle: carboxymethylcellulose (CMC)
[15] = dose: 400.0 mg/kg/injection, schedule: Q01DX001 (ip), vehicle: carboxymethylcellulose (CMC)
[16] = dose: 50.0 mg/kg/injection, schedule: Q01DX001 (ip), vehicle: saline

## Cc1cc(Cl)ccc1OC(=O)Nc1ccccc1Cl
[1]
  T/C: 97 % of control
[2]
  T/C: 102 % of control and 106 % of control
dose: 100.0 mg/kg/injection, schedule: Q04DX002 (ip), vehicle: Klucel (hydroxypropylcellulose) (HPC)
  T/C: 103 % of control
dose: 100.0 mg/kg/injection, schedule: Q04DX002 (ip), vehicle: saline with Tween-80
  T/C: 105 % of control and 89 % of control
dose: 100.0 mg/kg/injection, schedule: Q04DX003 (ip), vehicle: saline with Tween-80
  T/C: 96 % of control
dose: 200.0 mg/kg/injection, schedule: Q01DX001 (ip), vehicle: saline with Tween-80
  T/C: 94 % of control
[3]
  T/C: 100 % of control and 88 % of control
dose: 200.0 mg/kg/injection, schedule: Q04DX002 (ip), vehicle: Klucel (hydroxypropylcellulose) (HPC)
  T/C: 124 % of control
dose: 200.0 mg/kg/injection, schedule: Q04DX002 (ip), vehicle: saline with Tween-80
  T/C: 92 % of control and 100 % of control
dose: 200.0 mg/kg/injection, schedule: Q04DX003 (ip), vehicle: saline with Tween-80
  T/C: 100 % of control
[4]
  T/C: 99 % of control
[5]
  T/C: 102 % of control and 106 % of control
dose: 400.0 mg/kg/injection, schedule: Q04DX002 (ip), vehicle: Klucel (hydroxypropylcellulose) (HPC)
  T/C: 106 % of control
dose: 400.0 mg/kg/injection, schedule: Q04DX002 (ip), vehicle: saline with Tween-80
  T/C: 92 % of control and 105 % of control
dose: 400.0 mg/kg/injection, schedule: Q04DX003 (ip), vehicle: saline with Tween-80
  T/C: 96 % of control

## N/N=C(/C=N/N)C(O)CO (stereo not given)
dose: 25.0 mg/kg/injection, schedule: Q01DX001 (ip), vehicle: saline with Tween-80
  T/C: 95 % of control
dose: 50.0 mg/kg/injection, schedule: Q01DX001 (ip), vehicle: saline with Tween-80
  T/C: 98 % of control
[1]
  T/C: 89 % of control and 92 % of control
[4]
  T/C: 92 % of control

## O=C(CC(=O)C(F)(F)F)c1ccccc1.O=C(CC(=O)C(F)(F)F)c1ccccc1.[Cu]
dose: 6.25 mg/kg/injection, schedule: Q01DX009 (ip), vehicle: saline with Tween-80
  T/C: 95 % of control
[6]
  T/C: 91 % of control
dose: 12.5 mg/kg/injection, schedule: Q01DX009 (ip), vehicle: saline with Tween-80
  T/C: 95 % of control
[7]
  T/C: 92 % of control
dose: 25.0 mg/kg/injection, schedule: Q01DX009 (ip), vehicle: saline with Tween-80
  T/C: 92 % of control
[8]
  T/C: 91 % of control

## COc1ccc2c(ccc3nc(C)[nH]c(=O)c32)c1
dose: 100.0 mg/kg/injection, schedule: Q01DX001 (ip), vehicle: Klucel (hydroxypropylcellulose) (HPC)
  T/C: 91 % of control

## COc1cc(OC)c(NC(=O)Nc2ccc([N+](=O)[O-])cc2OC)cc1Cl
dose: 100.0 mg/kg/injection, schedule: Q01DX009 (ip), vehicle: Klucel (hydroxypropylcellulose) (HPC)
  T/C: 101 % of control
dose: 200.0 mg/kg/injection, schedule: Q01DX009 (ip), vehicle: Klucel (hydroxypropylcellulose) (HPC)
  T/C: 95 % of control
dose: 400.0 mg/kg/injection, schedule: Q01DX009 (ip), vehicle: Klucel (hydroxypropylcellulose) (HPC)
  T/C: 97 % of control

## S=C(NCCNC(=S)Nc1ccccc1)Nc1ccccc1
dose: 50.0 mg/kg/injection, schedule: Q01DX009 (ip), vehicle: saline with Tween-80
  T/C: 98 % of control
[2]
  T/C: 92 % of control
[3]
  T/C: 92 % of control

## N=C(N)SCCCCSC(=N)N
dose: 25.0 mg/kg/injection, schedule: Q01DX009 (ip), vehicle: saline
  T/C: 92 % of control
dose: 50.0 mg/kg/injection, schedule: Q01DX009 (ip), vehicle: saline
  T/C: 97 % of control
[9]
  T/C: 94 % of control and 106 % of control

## O=C(N/N=C/c1ccc([N+](=O)[O-])cc1)c1cccc2ccccc12
[10]
  T/C: 97 % of control
[11]
  T/C: 89 % of control
[12]
  T/C: 89 % of control

## O=C(O)c1ccc(C(=O)O)c(C(=O)O)c1.[NH-]C1CCCCC1[NH-].[Pt+2]
dose: 1.6 mg/kg/injection, schedule: Q01DX009 (ip), vehicle: sodium bicarbonate
  T/C: 198 % of control
dose: 3.2 mg/kg/injection, schedule: Q01DX009 (ip), vehicle: sodium bicarbonate
  T/C: 256 % of control
dose: 3.3 mg/kg/injection, schedule: Q01DX009 (ip), vehicle: saline
  T/C: 187 % of control
dose: 4.8 mg/kg/injection, schedule: Q01DX009 (ip), vehicle: sodium bicarbonate
  T/C: 250 % of control
dose: 6.4 mg/kg/injection, schedule: Q01DX009 (ip), vehicle: sodium bicarbonate
  T/C: 179 % of control
dose: 6.5 mg/kg/injection, schedule: Q01DX001 (ip), vehicle: saline
  T/C: 112 % of control
dose: 6.5 mg/kg/injection, schedule: Q01DX009 (ip), vehicle: saline
  T/C: 194 % of control
dose: 13.0 mg/kg/injection, schedule: Q01DX001 (ip), vehicle: saline
  T/C: 115 % of control
dose: 13.0 mg/kg/injection, schedule: Q01DX009 (ip), vehicle: saline
  T/C: 152 % of control
dose: 20.0 mg/kg/injection, schedule: Q01DX001 (ip), vehicle: sodium bicarbonate
  T/C: 220 % of control
dose: 26.0 mg/kg/injection, schedule: Q01DX009 (ip), vehicle: saline
  T/C: 102 % of control
dose: 40.0 mg/kg/injection, schedule: Q01DX001 (ip), vehicle: sodium bicarbonate
  T/C: 205 % of control

## CCCCCCCC(=O)[O][Hg][c]1ccccc1
dose: 9.38 mg/kg/injection, schedule: Q01DX001 (ip), vehicle: saline
  T/C: 98 % of control
dose: 18.75 mg/kg/injection, schedule: Q01DX001 (ip), vehicle: saline
  T/C: 88 % of control
dose: 37.5 mg/kg/injection, schedule: Q01DX001 (ip), vehicle: saline
  T/C: 102 % of control

## Cc1ccc(C(=O)OCC(C)C)s1
[13]
  T/C: 98 % of control
[14]
  T/C: 101 % of control
[15]
  T/C: 98 % of control

## CNC(=O)n1ncnc1N
dose: 100.0 mg/kg/injection, schedule: Q04DX003 (ip), vehicle: saline
  T/C: 94 % of control
dose: 200.0 mg/kg/injection, schedule: Q04DX003 (ip), vehicle: saline
  T/C: 96 % of control
dose: 400.0 mg/kg/injection, schedule: Q04DX003 (ip), vehicle: saline
  T/C: 97 % of control

## CC(=O)NC(CO)(CO)CO
[10]
  T/C: 94 % of control
[9]
  T/C: 94 % of control
[11]
  T/C: 102 % of control
dose: 200.0 mg/kg/injection, schedule: Q01DX009 (ip), vehicle: saline
  T/C: 89 % of control
[12]
  T/C: 98 % of control
dose: 400.0 mg/kg/injection, schedule: Q01DX009 (ip), vehicle: saline
  T/C: 90 % of control

## CC(=O)OC1C=CS(=O)(=O)C1 (stereo not given)
[2]
  T/C: 94 % of control
[3]
  T/C: 103 % of control
[5]
  T/C: 96 % of control

## O=C1CCC(=O)N1c1ccc([I+]c2ccc(N3C(=O)CCC3=O)cc2)cc1
[16]
  T/C: 103 % of control
[10]
  T/C: 103 % of control
[11]
  T/C: 105 % of control
[12]
  T/C: 103 % of control

## O=C1OCC/C1=C/c1cccc(O)c1
dose: 3.12 mg/kg/injection, schedule: Q04DX002 (ip), vehicle: Klucel (hydroxypropylcellulose) (HPC)
  T/C: 97 % of control
dose: 6.25 mg/kg/injection, schedule: Q04DX002 (ip), vehicle: Klucel (hydroxypropylcellulose) (HPC)
  T/C: 108 % of control
dose: 12.5 mg/kg/injection, schedule: Q04DX002 (ip), vehicle: Klucel (hydroxypropylcellulose) (HPC)
  T/C: 101 % of control

## CCOC(=O)C(Cc1c[nH]c2ccccc12)NC(=O)/C=C/N(CCCl)CCCl (stereo not given)
dose: 10.0 mg/kg/injection, schedule: Q01DX Z (ip), vehicle: other
  T/C: 91 % of control
dose: 20.0 mg/kg/injection, schedule: Q01DX Z (ip), vehicle: other
  T/C: 92 % of control
dose: 40.0 mg/kg/injection, schedule: Q01DX Z (ip), vehicle: other
  T/C: 94 % of control
dose: 80.0 mg/kg/injection, schedule: Q01DX Z (ip), vehicle: other
  T/C: 89 % of control

## Cc1ccc(C(=O)OCC2OC(OC3CC(OC(=O)c4ccc(C)cc4)C(COC(=O)c4ccc(C)cc4)O3)CC2OC(=O)c2ccc(C)cc2)cc1 (stereo not given)
dose: 50.0 mg/kg/injection, schedule: Q01DX001 (ip), vehicle: carboxymethylcellulose (CMC)
  T/C: 101 % of control
[13]
  T/C: 87 % of control
[14]
  T/C: 101 % of control
[15]
  T/C: 97 % of control

## CN(C)Cc1c[nH]c2ncccc12
[6]
  T/C: 98 % of control
[7]
  T/C: 96 % of control
[8]
  T/C: 102 % of control

## COC1OCC(O)C(N)C1O (stereo not given)
[10]
  T/C: 102 % of control and 95 % of control
[11]
  T/C: 102 % of control and 104 % of control and 106 % of control
[12]
  T/C: 87 % of control and 98 % of control and 92 % of control

## COCC(=O)c1ccccc1
[16]
  T/C: 96 % of control
[10]
  T/C: 98 % of control
[11]
  T/C: 98 % of control
[12]
  T/C: 93 % of control

## CN(C)c1ccc(C(=C2C=CC(=[N+](C)C)C=C2)c2ccccc2Cl)cc1
[16]
  T/C: 92 % of control
[10]
  T/C: 92 % of control
